This note sets out measurements from PMC9688808, “Discovery of Novel Lin28 Inhibitors to Suppress Cancer Cell Stemness” (Cancers, 2022).

In one assay the target is T1, Lin28B CSD+ZKD (Homo sapiens, UniProt Q6ZN17).
T1 construct: Lin28B CSD+ZKD (aa7-204); His-tag; made in house; host or cells: Escherichia coli BL21
T1 sequence (Q6ZN17 7-204): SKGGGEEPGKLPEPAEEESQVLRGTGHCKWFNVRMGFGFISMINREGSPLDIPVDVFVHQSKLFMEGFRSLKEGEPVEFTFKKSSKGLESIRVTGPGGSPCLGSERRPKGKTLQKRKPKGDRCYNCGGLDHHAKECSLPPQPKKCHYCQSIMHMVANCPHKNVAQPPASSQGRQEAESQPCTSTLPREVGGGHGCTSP
Kind of assay: Fluorescence polarization (FP) assay, Lin28 CSD+ZKD with FAM-labeled Let-7 probe. The assay is classed as binding. The following applies: 20 uM compound; for inhibition at 20 µM: read-out: inhibition of FP signals. The text has this:
(§1) ZINC compounds were purchased from Enamine (Kyiv, Ukraine), Life Chemicals Ltd. (Kyiv, Ukraine), or Princeton Biomolecular Research (Princeton, NJ, USA) with >90% purity. Upon receiving the compounds, the molecular masses were validated by LC/MS/MS. His-tagged human Lin28B ZKD (aa110-174), Lin28B CSD+ZKD (aa7-204), and Lin28A ZKD (aa121-187) were expressed in Escherichia coli BL21 cells and purified by immobilized metal ion affinity chromatography (IMAC) with nickel nitrilotriacetic acid (NiNTA) resin and size exclusion chromatography (s75 10/300 GL) as we have previously reported.
(§2) The fluorescein amidites (FAM)-tagged Let-7 probe with the sequence of […] was purchased from Integrated DNA Technologies (IDT). The probe at the concentrations ranging from 1 nM to 50 uM was incubated with Lin28B (ZKD) or Lin28 (CSD+ZKD) to a final volume of 30 uL at room temperature for 20 min. To read the fluorescence, a TECAN 500 machine was used. Fluorescence polarization was calculated using the following equation: P=Fparrallel−Fperpendicular/Fparrallel+Fperpendicular where P is the fluorescence polarization reading, F parallel is the fluorescence intensity acquired from the parallel excitation plane, and F perpendicular is the fluorescence intensity acquired from the perpendicular direction of the excitation plane. The total fluorescence intensity is estimated using the following equation: F=Fparallel+2Fperpendicular
(§3) All the raw FP signal data from the TECAN 500 FP results were analyzed using Prism 8.0 (GraphPad, San Diego, CA, USA); normalized curves were plotted and IC50 values were estimated. All FP data were repeated three to five times.
(§4) To test the predicted compounds by CADD, we established an FP assay using both Lin28B ZKD and Lin28B CSD+ZKD to be incubated with a FAM-labeled Let-7 oligo containing the GGAG motif. To validate that the signals obtained from FP assays reflect the interaction between Lin28 and Let-7, we have tested: (1) 1 nM–50 uM FAM-labeled Let-7 probes with 10 uM Lin28 proteins and observed a dose-dependent reduction of FP signal; (2) 1 nM FAM labeled Let-7 probes with 1 nM–50 uM Lin28 proteins and observed a dose-dependent increase of FP signal; (3) 1 nM–50 uM doses of non-labeled Let-7 oligo to be incubated with 1 nM FAM probe and 10 uM Lin28 proteins, and observed a dose-dependent reduction of FP signal (Figure 2A,B).
We then screened all 163 molecules predicted by the CADD pipeline by using the FP assays with 10 uM of Lin28B ZKD protein and 1 nM of FAM-labeled Let-7 probe. Compounds Li71 and 1632 were also included and served as positive controls. We used 60% inhibition of FP signals by 20 uM of the tested compounds as the cut-off and found 15 active compounds achieving a hit rate of 9% (15/163) (Figure 2C left). […]

A further assay concerns the target T2, Lin28B ZKD (Homo sapiens, UniProt Q6ZN17).
T2 construct: His-tagged human Lin28B ZKD (aa110-174); His-tag; made in house; host or cells: Escherichia coli BL21
T2 sequence (Q6ZN17 110-174): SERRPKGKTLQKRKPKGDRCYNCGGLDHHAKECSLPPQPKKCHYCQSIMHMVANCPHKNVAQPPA
Kind of assay: Fluorescence polarization (FP) assay, Lin28B ZKD with FAM-labeled Let-7 probe. The assay is classed as binding. The following applies: for IC50: 10 uM Lin28B ZKD, 1 nM FAM-labeled Let-7 probe, 1 nM–1000 uM compound.
Description: as §1, §2, §3, §4
Figure 2 Establishment of the Fluorescence Polarization Assay and Initial compound screening. (A) Graphical representation of the FP assay principle. As the labeled probe floats freely in the solution, it rotates more rapidly, producing a low FP signal. When the labeled probe binds to proteins, it rotates slower and produces a high FP signal. (B) In FP assays, probe titration was performed by using 10 uM protein with […] FAM-labeled Let-7 probe (n = 9 replicates). Protein titration was performed by using 1 nM of FAM-labeled Let-7 probe with 1 nM–50 uM Lin28B ZKD protein (n = 9 replicates), and competition titration using 1 nM–50 µM non-labeled Let-7 probe with 10 uM of Lin28B ZKD protein with 1 nM FAM-labeled Let-7 probe (9 replicates). (C) FP assays were used to screen 163 compounds at the concentration of 20 uM using 1 nM of FAM-labeled Let-7 probe with 10 uM Lin28B ZKD protein.
Figure 3 Lin28 inhibitors block the interaction between Lin28B ZKD and Let-7. […]

A value given as a limit tells only on which side of the number the result lay.

Turning to `O=c1[nH]c(Nc2ccccc2O)cs1` [Ln15], the inhibition at 20 µM on Lin28B CSD+ZKD is around 50%. Further, the concentration for half-maximal inhibition (IC50) against Lin28B ZKD was around 9 µM.

Take `CC(=O)N(C)c1cccc(-c2ccc3nnc(C)n3n2)c1` [compound 1632, reference compound]: the “maximum inhibition in FP assay” value on Lin28B ZKD (Lin28B ZKD titration) is listed as at most 50%.

`CCOc1cccc2c1N[C@@H](c1ccc(C(=O)O)cc1)[C@H]1CC=C[C@@H]21` [Li71, reference compound]: the “inhibition of FP signals” value against Lin28B CSD+ZKD is reported as ~ 30%. The half-inhibitory concentration (IC50) at Lin28B ZKD amounted to 55 µM.

On to `O=c1cccc(-c2nc3cc(F)c(O)cc3c(=O)[nH]2)[nH]1` [Ln115], for which the inhibition at 20 µM at Lin28B CSD+ZKD is around 20%. This compound gave an IC50 against Lin28B ZKD of around 21 µM.

Consider `CCc1cc(=O)[nH]c(Nc2cc(Cl)ccc2O)n1` [Ln7], for which the inhibition at 20 µM on Lin28B CSD+ZKD was around 50%. This compound also came in with an IC50 against Lin28B ZKD of around 45 µM.
